Values quoted from earlier work, collected in patent US7060695B2, “Method to prevent vision loss” (QLT, Inc., priority 2001, dated 2006).

Tested on: CNV
Conditions: approved protocol, re-treatment as frequently as every three months if CNV leakage

For verteporfin, the closure of neovasculature is given as “closes neovasculature” and the “loss of visual acuity compared to placebo controls” value is given as “prevents loss of visual acuity compared to placebo controls”.
